This is an account of results in article PMC10661491 (Virus Research, 2023).

In series [1] the test system is ASFV. The series is classed as cell-based, African Swine Fever Virus (ASFV).
Series [2] deals with ASFV. The series is classed as cell-based, African Swine Fever Virus (ASFV). The source holds these as a separate data set.
In the next series the test system is macropinocytosis of PAMs. In kind it is cell-based, pigs.
The subject of the next series is PI3K/Akt pathway. In kind it is cell-based, pigs.
In series [3] the test system is ASFV. In kind it is cell-based, African Swine Fever Virus (ASFV). The source holds these as a separate data set.
For series [4], the system named is ASFV. In kind it is cell-based, African Swine Fever Virus (ASFV). This is another data set of the same source.
Series [5] has as its system clathrin-mediated endocytosis of PAMs. The series is classed as cell-based, pigs.
Series [6] concerns ASFV. Description: microbe, parasite or virus in culture. In kind it is cell-based. Conditions: African swine fever virus, BMDM, read-out: IC50 against ASFV.
The next series deals with LSDV. In kind it is cell-based, Lumpy Skin Disease Virus (LSDV).
Another series relates to PEDV. In kind it is cell-based, Porcine Epidemic Diarrhea Virus (PEDV).
The test system of series [7] is ASFV. In kind it is cell-based, African Swine Fever Virus (ASFV). This is another data set of the same source.
Series [8] relates to ASFV. In kind it is cell-based, African Swine Fever Virus (ASFV). This is another data set of the same source.
The subject of series [9] is ASFV. Description: microbe, parasite or virus in culture. The series is classed as cell-based. The note with it: African swine fever virus, read-out: IC50 against ASFV.
For series [10], the system named is ASFV. The series can be described thus: microbe, parasite or virus in culture. The series is classed as cell-based. The note with it: African swine fever virus, MA104, read-out: IC50 against ASFV.

Read-outs that look alike come from different tables or passages of the source.

With `O=c1cc(N2CCOCC2)oc2c(-c3ccccc3)cccc12` [LY294002], in the series on ASFV [1], the “levels of CP204L and B646L” value is recorded as “significantly suppressed”. In the series with ASFV [2], the “expression of ASFV p72 (Western Blot, Fig. 7(B))” value is listed as “not detected”. The “uptake of dextran-Alexa647 by PAMs” value with macropinocytosis of PAMs is listed as “no uptake of dextran-Alexa647”. Moreover, the “phosphorylation of Akt (Western Blot, Fig. 7(B))” value in the series on PI3K/Akt pathway is recorded as “completely inhibited”.
What is called IC50 is the point on the concentration scale where inhibition reaches its midpoint. For the compound `COc1ccc2cc1Oc1ccc(cc1)C[C@H]1c3cc(c(OC)cc3CCN1C)Oc1c(OC)c(OC)cc3c1[C@H](C2)N(C)CC3` [TET, Tetrandrine], the “ASFV-infected (fluorescent) PAMs by IFA” value in the series with ASFV [3] was “hardly any fluorescent PAMs were observed”. For the same compound, the cytotoxicity result in the series with Vero cells is “no cytotoxicity”. The cytotoxicity result in the series on MDBK cells is recorded as “no cytotoxicity”. The “ASFV infection after co-incubation of TET and ASFV (virucidal effect)” value in the series on ASFV [4] was “did not significantly reduce ASFV infection”. In addition, the “levels of CP204L and B646L” value in the series on ASFV [1] is on record as “significantly suppressed”. For the same compound, the “transferrin-Alexa594 internalization, treated versus untreated group” value in [5] is recorded as “no significant difference”. The IC50 with ASFV [6] came out at 1.15 µM. For the same compound, the “inhibitory effect on LSDV (LSDV 117 protein, Western Blot)” value with LSDV was “dose-dependent inhibitory effect”. In the series with ASFV [2], the “expression level of ASFV p72 (Western Blot)” value is “dose-dependent inhibition”; the “expression of ASFV p72 (Western Blot, Fig. 7(B))” value is listed as “not detected”; the “inhibition rate of TET on ASFV compared to the LY294002 control group” value is given as approximately 0%; the “level of ASFV-p72 protein (Western Blot)” value was “significantly reduced”. In the series on PEDV, the “inhibitory effect on PEDV (PEDV N protein, Western Blot)” value is “dose-dependent inhibitory effect”. Moreover, in the series with macropinocytosis of PAMs, the “Dext (dextran-Alexa647) fluorescence signal, treated versus untreated group” value is listed as “completely disappeared” and the “uptake of dextran-Alexa647 by PAMs” value is reported as “no uptake of dextran-Alexa647”. In addition, the “ASFV p72 expression level by Western Blot, single-stage treatment” value in the series with ASFV [7] is on record as “significant reduction in ASFV p72 expression level was observed only during the internalization stage”. Besides, in the series with ASFV [8], the ASFV infection level entry is “less than 0.5%”. Also, the half-inhibitory concentration (IC50) with ASFV [9] is 0.45 µM. In addition, in the series with ASFV [10], the IC50 came to 0.87 µM. In the series on PI3K/Akt pathway, the “phosphorylation of Akt (Western Blot, Fig. 7(B))” value is given as “partially inhibited” and the “phosphorylation of Akt activated by ASFV internalization” value is recorded as “inhibited the phosphorylation of Akt”. The cytotoxicity entry with IPEC-J2 cells is reported as “no cytotoxicity”.
